These results are taken from US9328134B2, “Carbohydrate phosphonate derivatives as modulators of glycosylation” (AMGEN INC., priority 2013, dated 2016).

Data set [1] concerns cell surface protein high mannose in CS-9 CHO cells. Description: Assay for Cell Surface Protein High Mannose (FACS with FITC-labeled Concanavilin A). Type of data set: cell-based, Chinese hamster. The note with it: Cricetulus griseus, 72 h, 3 days. On the procedure:
Assay for Cell Surface Protein High Mannose
(§1) The effect of the example compounds on cell surface protein high mannose was measured in CS-9 CHO cells. A range of amounts of example compound was added to produce various concentrations (100 μM-0.005 uM). These were added to cells grown in batch production CHO cell media in Costar 96-well clear round bottom polypropylene plates and incubated at 37° C. in the presence of 5% CO2. Commercially available standard batch production serum free CHO media such as CD OptiCHO (Invitrogen), Power CHO (Lonza), or ExCell 325 PF CHO (commercially available from Sigma Aldrich) may be used in accordance with the assay. After 3 days, cells were analyzed by fluorescence-activated cell sorting (FACS) using FITC-labeled Concanavilin A according to the following procedure. After 3 days, 50 uL of FITC-LCA (3 ug/mL) was added to columns 1-11 and plates were incubated for 30 minutes. Plates were then centrifuged briefly (2,000 rpm), and the medium was aspirated away. Cells were washed three times with PBS with 1% BSA, resuspended in the same buffer, and analyzed on the BD LSRii instrument. Cells were simultaneously assayed for viability using propidium iodide.

Data set [2] in a line: Cell viability by propidium iodide, run with the high mannose assay. It counts as cell-based, Chinese hamster. As to conditions: Chinese hamster, 100 μM, CS-9 CHO cells, read-out: Cell Viability max activity at 100 μM. As for the experimental part:
as §1

Data set [3] has as its system CS-9 CHO cells. Described as above. Type of data set: cell-based, Chinese hamster. The note with it: Cricetulus griseus, 72 h, 3 days. As for the experimental part: as §1
Data set [4] deals with cell surface protein fucosylation in CS-9 CHO cells. Description: Cell Surface Protein Fucosylation Assay (FACS with FITC-LCA). The note with it: Cricetulus griseus, 72 h, 3 days. It counts as cell-based, Chinese hamster. On the procedure: Cell Surface Protein Fucosylation Assay
as §1, with “fucosylation” for “high mannose”, “FITC-Lens culinaris agglutinin (FITC-LCA, Vector Laboratories Cat#FL-1041)” for “FITC-labeled Concanavilin A”
The following table includes IC50 values obtained using the procedures set forth above for the Example compounds described herein.

Data set [5] is described as follows: Cell viability by propidium iodide, run with the fucosylation assay. Type of data set: cell-based, Chinese hamster. As to conditions: Chinese hamster, 100 μM, CS-9 CHO cells, read-out: Cell Viability max activity at 100 μM. As for the experimental part:
as §1, with “fucosylation” for “high mannose”, “FITC-Lens culinaris agglutinin (FITC-LCA, Vector Laboratories Cat#FL-1041)” for “FITC-labeled Concanavilin A”

For data set [6], the system named is CS-9 CHO cells. The description is as above. It counts as cell-based, Chinese hamster. As to conditions: Cricetulus griseus, 72 h, 3 days. As for the experimental part:
as §1, with “fucosylation” for “high mannose”, “FITC-Lens culinaris agglutinin (FITC-LCA, Vector Laboratories Cat#FL-1041)” for “FITC-labeled Concanavilin A”

Data set [7] relates to CHO cells expressing anti-TRAIL IgG1 antibody. Description: Production cultures to generate antibodies for glycan analysis (HILIC). Type of data set: cell-based, Chinese hamster. On the procedure: Production Cultures to Generate Antibodies for Glycan Analysis
CHO cells expressing anti-TRAIL IgG1 antibody were seeded into serum-free growth medium in deep 24-well plates via 1:5 dilution. Any medium suitable for growth of CHO cells (i.e. PowerCHO by Lonza or OptiCHO by Invitrogen) can be used. The fucosylation inhibitor Example 1 compound was added to the cultures at inoculation at 5, 10, 20, 40, 80, 160 and 320 uM via 1:1000 dilution of stock solutions in DMSO. The cultures were placed into a shaking incubator (50 mm orbital diameter, 36° C., 5% CO2, 220 rpm). The growth and viability of the cultures were monitored throughout the length of the production assay. The cells were fed with feed medium and an amino acid supplement on days 3, 6 and 8. Cultures were harvested on day 10 via centrifugation and spent medium supernatants were submitted for titer analysis and protein A purification. Glycan analysis of purified antibodies was conducted via the HILIC assay.
To test whether daily doses of the Example 1 fucosylation inhibitor would result in higher inhibition profile, CHO cells expressing anti TRAIL IgG1 antibody were seeded into serum-free growth medium in deep 24-well plates via 1:5 dilution. The fucosylation inhibitor compound Example 1 (FIG. 2) and compound Example 3 (FIG. 3) were added to the cultures on a daily basis at 5, 10, 20, 40, 60, 80, and 100 uM levels via 1:1000 dilution of stock solutions in DMSO. The cultures were placed into a shaking incubator (50 mm orbital diameter, 36° C., 5% CO2, 220 rpm). The growth and viability of cultures were monitored throughout the length of the production assay. Starting on day 3, cells were centrifuged at 1000 rpm for 5 minutes, a fraction of the spent medium was removed and cells were replenished with the equivalent volume of production medium. Cultures were harvested on day 10 via a 10 minute centrifugation at 1000 rpm. Spent medium fractions collected during the course of the experiment were submitted for titer analysis. Spent medium fractions corresponding to select time-points were also purified on protein A. Glycan analysis of the purified antibodies is shown in FIGS. 2 and 3.
The PNGase F (New England Biolabs) enzymatically-released N-linked glycans from protein-purified anti-TRAIL IgG1 antibody were labeled with 2-aminobenzoic acid (2-AA) and separated by HILIC (hydrophilic interaction liquid chromatography) in-line with a fluorescence detector. The separation was performed using a Waters Acquity UPLC (Waters, Milford, Mass.). In-line MS, using an ion trap mass spectrometer (LTQ; Thermo Scientific, Waltham, Mass.) in positive mode, was incorporated to accommodate mass determination of species. Glycans were injected and bound to the column in high organic conditions and were then eluted with an increasing gradient of an aqueous ammonium formate buffer. Fast separation times were achieved using a […] small particle column format (Acquity UPLC BEH Glycan Column, 2.1×100 mm; Waters, Milford, Mass.). Total runtime including column re-equilibration for the MS compatible separation was 30 minutes. Glycan from cells treated with 320 uM Example 1 compound was 64% fucosylated vs. 77% for DMSO control, and contained 13% high mannose vs. 12% for DMSO control.

Data set [8] is described as follows: Stability of inhibitor in the culture medium. It counts as physicochemical. The note with it: cell culture medium.

In the case of `CC(=O)N[C@@H]1[C@@H](OC(C)=O)[C@H](OC(C)=O)[C@@H](COC(C)=O)O[C@@H]1CP(=O)(OCOC(=O)C(C)(C)C)OCOC(=O)C(C)(C)C` [Example 5, (((((2S,3R,4R,5S,6R)-3-acetamido-4,5-diacetoxy-6-(acetoxymethyl)tetrahydro-2H-pyran-2-yl)methyl)phosphoryl)bis(oxy))bis(methylene)bis(2,2-dimethylpropanoate)], the half-inhibitory concentration (IC50) (usually the midpoint of a concentration-inhibition curve) in data set [1] is 3.4 µM; in the data set with CS-9 CHO cells [3], over 100 µM. Further, the viability – broadly, a read-out of living cells in per cent, often relative to untreated cells – at 3 days, 100 µM in data set [2] came out at 88%.

For `CC(=O)OC[C@H]1O[C@H](CP(=O)(OCOC(=O)C(C)(C)C)OCOC(=O)C(C)(C)C)[C@@H](OC(C)=O)[C@@H](OC(C)=O)[C@@H]1OC(C)=O` [Example 4, (2R,3R,4S,5S,6S)-2-(acetoxymethyl)-6-((bis((pivaloyloxy)methoxy)phosphoryl)methyl)tetrahydro-2H-pyran-3,4,5-triyl triacetate], the results for the IC50 (in data set [1]; in the data set with CS-9 CHO cells [3]) were 33.1 µM and over 100 µM, respectively. In data set [2], the viability at 3 days, 100 µM was found to be 92%.

`CC(=O)OCOP(=O)(C[C@H]1O[C@@H](C)[C@@H](OC(C)=O)[C@@H](OC(C)=O)[C@@H]1OC(C)=O)OCOC(C)=O` [Example 2, (2S,3S,4R,5R,6S)-2-((bis(acetoxymethoxy)phosphoryl)methyl)-6-methyltetrahydro-2H-pyran-3,4,5-triyl triacetate]: the IC50 in data set [4] was 44 µM; in the data set on CS-9 CHO cells [6], over 100 µM. In data set [5], the viability at 3 days, 100 µM was found to be 103%.

Turning to `CC(=O)O[C@H]1[C@H](OC(C)=O)[C@H](CP(=O)(OCOC(=O)C(C)(C)C)OCOC(=O)C(C)(C)C)O[C@@H](C(F)(F)F)[C@H]1OC(C)=O` [Example 3, (2R,3S,4R,5S,6R)-2-((bis((pivaloyloxy)-methoxy)phosphoryl)methyl)-6-(trifluoromethyl)tetrahydro-2H-pyran-3,4,5-triyl triacetate], the IC50 in data set [4] was 7 µM; in the data set with CS-9 CHO cells [6], over 100 µM. Also, the viability at 3 days, 100 µM in data set [5] stood at 90%. The “Incorporation of inhibitor into antibody glycan” value in data set [7] (added to cell culture media on a daily basis, 5-100 uM) is “some incorporation of part of the inhibitor”.

Consider `CC(=O)O[C@@H]1[C@H](OC(C)=O)[C@H](C)O[C@H](CP(=O)(OCOC(=O)C(C)(C)C)OCOC(=O)C(C)(C)C)[C@H]1OC(C)=O` [Example 1, (2S,3S,4R,5R,6S)-2-((bis((pivaloyloxy)methoxy)phosphoryl)methyl)-6-methyltetrahydro-2H-pyran-3,4,5-triyl triacetate], for which the IC50 in data set [4] was 21 µM; in the data set with CS-9 CHO cells [6], over 100 µM. The viability at 3 days, 100 µM in data set [5] worked out at 94%. The “Stability of inhibitor in the medium” value in data set [8] was “limited stability”. For the same compound, the “Incorporation of inhibitor molecule into the glycan” value in data set [7] (320 uM, HILIC with in-line MS) is given as “No trace of the inhibitor molecule was detectable in the glycan”. Further, in data set [7] (320 uM, anti-TRAIL IgG1 glycan, HILIC, DMSO control 12%), the “Glycan high mannose content” value was 13%. In data set [7] (320 uM, anti-TRAIL IgG1 glycan, HILIC, DMSO control 77%), this compound displayed a Glycan fucosylated of 64%. Besides, the inhibition – broadly, the relative decrease from the control value, in per cent – at 320 µM in data set [7] (Cricetulus griseus, CHO, 240 h, 320 uM added at inoculation, anti-TRAIL IgG1, harvest day 10, read-out: Maximum inhibition of fucosylation (afucosylation)) is about 10%.
